Reference: paper PMC11768629, “Potential Interaction of Pinocembrin with Drug Transporters and Hepatic Drug-Metabolizing Enzymes” (Pharmaceuticals, 2025)

Assays:
[1] = biological target: T1, hOAT3 (Homo sapiens, UniProt Q8TCC7); experiment: Pinocembrin treatment followed by 3H-estrone sulfate accumulation in hOAT3-MDCK cells; format: cell-based; settings: 1, 10 and 50 μM for 24 h, concentration-dependent, compared with vehicle
T1 construct: host or cells: MDCK
T1 sequence (Q8TCC7 1-542): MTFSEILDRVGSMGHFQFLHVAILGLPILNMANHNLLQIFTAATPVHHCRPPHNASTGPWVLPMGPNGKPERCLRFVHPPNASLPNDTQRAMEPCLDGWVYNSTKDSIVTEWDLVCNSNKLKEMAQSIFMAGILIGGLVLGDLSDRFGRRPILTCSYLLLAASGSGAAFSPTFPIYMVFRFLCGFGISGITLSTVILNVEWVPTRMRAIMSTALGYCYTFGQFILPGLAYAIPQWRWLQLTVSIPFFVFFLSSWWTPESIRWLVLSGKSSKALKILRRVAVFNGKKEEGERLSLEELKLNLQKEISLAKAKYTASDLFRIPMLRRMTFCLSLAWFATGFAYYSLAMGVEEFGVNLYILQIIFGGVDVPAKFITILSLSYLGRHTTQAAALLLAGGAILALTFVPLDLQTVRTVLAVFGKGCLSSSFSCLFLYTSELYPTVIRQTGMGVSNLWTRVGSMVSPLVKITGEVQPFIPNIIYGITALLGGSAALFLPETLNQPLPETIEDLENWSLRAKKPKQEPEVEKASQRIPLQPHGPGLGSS
Procedure: The hOAT1-MDCK cells and hOAT3-MDCK cells were treated with 1, 10, and 50 μM pinocembrin for 24 h, followed by a measurement of ^3H-PAH and ^3H-estrone sulfate cellular accumulation. […] The inhibitory effect of pinocembrin occurred in a concentration-dependent manner.
A cell monolayer comprising hOAT1-MDCK, hOAT3-MDCK, hOCT1-CHO-K1, hOCT2-CHO-K1, hMATE1-CHO-K1, hMATE2-CHO-K1, and mock cells were utilized for the uptake experiments. The cells were washed three times with a buffer containing (in mM) 140 NaCl, 5 KCl, 0.4 MgSO4, 0.5 MgCl2, 1 CaCl2, 0.3 Na2HPO4, 0.4 KH2PO4, 6 D-glucose, and 4 NaHCO3 at pH 7.4 and incubated at 37 °C for 15 min. After incubation, the hOAT1-MDCK and hOAT3-MDCK cells were incubated for 10 min with ^3H-PAH and ^3H-estrone sulfate, a substrate of hOAT1 and hOAT3, respectively. The hOCT1-CHO-K1 and hOCT2-CHO-K1 cells were incubated with ^3H-MPP^+, a substrate of OCT1 and OCT2, for five minutes. The functions of MATE1 and MATE2 were determined by incubating the hMATE1-CHO-K1 and hMATE2-CHO-K1 cells with a buffer containing ^3H-MPP^+, a substrate of MATE1 and MATE2, at pH 8.5 for five minutes. The cells were washed three times with an ice-cold buffer to stop the transport function. […] The samples were collected and transferred to vials containing a liquid scintillation cocktail to measure radioactivity by a β-counter (Packard BioScience, Wellesley, MA, USA). […]

[2] = biological target: T2, hOAT1 (Homo sapiens, UniProt Q4U2R8); experiment: hOAT1-mediated 6-CF uptake in hOAT1-MDCK cells (inhibitory potency and kinetics); format: cell-based
T2 construct: host or cells: MDCK
T2 sequence (Q4U2R8 1-563): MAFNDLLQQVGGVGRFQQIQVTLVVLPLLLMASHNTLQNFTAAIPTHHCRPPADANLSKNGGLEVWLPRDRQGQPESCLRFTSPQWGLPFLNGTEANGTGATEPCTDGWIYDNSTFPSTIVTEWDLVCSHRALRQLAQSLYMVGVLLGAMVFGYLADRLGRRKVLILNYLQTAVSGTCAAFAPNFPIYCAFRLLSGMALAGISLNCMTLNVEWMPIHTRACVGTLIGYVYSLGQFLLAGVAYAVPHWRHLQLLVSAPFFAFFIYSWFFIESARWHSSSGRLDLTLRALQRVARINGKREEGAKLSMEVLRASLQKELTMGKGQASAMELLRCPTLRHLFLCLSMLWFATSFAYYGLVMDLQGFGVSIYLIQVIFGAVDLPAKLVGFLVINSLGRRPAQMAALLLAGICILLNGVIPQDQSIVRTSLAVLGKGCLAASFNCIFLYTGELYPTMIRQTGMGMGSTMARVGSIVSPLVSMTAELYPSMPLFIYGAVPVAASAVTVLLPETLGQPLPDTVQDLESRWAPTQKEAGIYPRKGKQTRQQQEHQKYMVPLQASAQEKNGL
Procedure: To determine the inhibitory potency of pinocembrin on the hOAT1 and hOAT3 function, the IC50 of pinocembrin on the hOAT1- and hOAT3-mediated uptake of 6-carboxyfluorescein (6-CF), a fluorescent substrate of hOAT1 and hOAT3, was determined. […] Next, the inhibitory mechanism of pinocembrin was determined using a kinetic study.
The hOAT1-MDCK and hOAT3-MDCK cell monolayers were incubated at 37 °C with an uptake buffer containing 6-CF (10 µM), a fluorescent substrate of hOAT1 and hOAT3 [12], and pinocembrin (0–50 µM) for 10 min. Uptake was terminated by removing the uptake solution and washing four times with a cold buffer. The cell monolayers were lysed with 0.4 N NaOH for 30 min. The samples were transferred to 96-black well plates to measure the fluorescence intensity using a fluorescent plate reader (EnVision XCite 2105 Multimode Plate Reader, Packard BioScience, Wellesley, MA, USA) at excitation and emission wavelengths of 490 and 510, respectively. The IC50 of pinocembrin on hOAT1- and hOAT3-mediated 6-CF uptake was calculated in GraphPad Prism using sigmoidal concentration–response analysis using the equation Y = 100/(IC50/X)^HillSlope (X is the concentration, while Y is the normalized response). In addition, the estimated inhibitory constant (Ki) was calculated using the Cheng–Prusoff equation.
The hOAT1-MDCK and hOAT3-MDCK cell monolayers were incubated with 6-CF at increasing concentrations (0 to 100 µM) and in the absence or presence of 5 µM pinocembrin for 10 min. The kinetic parameters of 6-CF transport by hOAT1 and hOAT3 in the presence of pinocembrin were determined using nonlinear regression analysis to fit the Michaelis–Menten kinetic equation: V=Vmax[S]/Km+[S] where V is the rate of 6-CF transport, Vmax is the maximum rate of 6-CF transport, Km is the 6-CF concentration that results in half the maximum transport (Michaelis–Menten constant), and [S] is the concentration of 6-CF in the transport reaction.

3H-estrone sulfate accumulation after pinocembrin treatment [1]: significantly decreased
Vmax of hOAT1-mediated 6-CF uptake, With Pinocembrin ([2]; 5 μM pinocembrin, 6-CF up to 100 μM, hOAT1-MDCK cells): 6.03 ± 1.02 nmol/min/cm^2
IC50 ([2]; hOAT1-MDCK cells, 6-CF 10 µM, mean ± S.D., three experiments): 1470 ± 870 nM
Ki ([2]; hOAT1-MDCK cells, estimated with the Cheng–Prusoff equation): 810 ± 120 nM
inhibitory mechanism on hOAT1 transport function ([2]; kinetic study, 5 μM pinocembrin: Km increased, Vmax unchanged): competitively
Structure (SMILES): O=C1C[C@@H](c2ccccc2)Oc2cc(O)cc(O)c21 [pinocembrin]
